For assay [1], the target named is T1, P. aeruginosa PBP3 (Pseudomonas aeruginosa, UniProt G3XD46).
T1 construct: A gene encoding ftsI (PBP3, residues 50–579) from P. aeruginosa PAO1; made in house; host or cells: E. coli BL21(DE3)
Description: biochemical. Format: binding. The settings on record: 311 nM PBP3, 30 nM Bocillin-FL; 10 min pre-incubation at 30 °C; mean ± standard error of three independent experiments; read-out: pIC50 (bocillin, n = 3) (converted). From the text: (§1) PBP3 transpeptidases are proposed to be key targets for the cephalosporins and most other β-lactam antibiotics.[13] […] In one method, the thioester substrate analogue S2d is hydrolysed by PBP3 (ESI Scheme S1 ^†) releasing D-alanine and a free thiol.[15,16] The latter reacts with monobromobimane (mBBr), a fluorescent dye, enabling measurement of the turnover rate and determination of pIC50 values.
A positive control without inhibitor and a negative control lacking both enzyme and inhibitor were prepared. In both cases the inhibitor/enzyme solution was replaced with an equal volume of buffer. Following incubation of the inhibitor with PBP3, Bocillin-FL (30 nM) was dispensed to initiate the reaction. Following a further incubation (10 min, 30 °C, 300 rpm) the fluorescence polarisation was measured using a BMG PHERAstar Microplate Reader (λEx/λEm = 480/520 nm) using black 384-well microplates (Greiner). The percentage inhibition of Bocillin-FL binding was calculated for each compound concentration by normalising with control wells. These measurements were used to calculate relative pIC50 values using the log([inhibitor]) against normalised response, fit, using GraphPad Prism version 10.2 (ESI Fig. S7 ^†).
Figure S7: Dose response curves for (A) cefiderocol, (B) ceftazidime, (C) cefepime and […]
assays were carried out with 311 nM PBP3 and 30 nM Bocillin-FL, with 10 minute pre-incubation with inhibitor compounds in 50 mM potassium phosphate, pH 7.4. […]
(§2) independent repeats are shown. Error bars represent standard deviations from three technical replicates measured simultaneously. Average pIC50 values and inhibitor structures are provided […]
(§3) (1 picture or pasted object on this page, not shown here)

Assay [2] concerns the target T1, P. aeruginosa PBP3. As to the kind of experiment: biochemical. The note with it: 300 nM PBP3, 1.5 mM S2d, 0.5 mM mBBr; 10 min pre-incubation at 30 °C; mean ± standard error of three independent experiments; read-out: pIC50 (S2d, n = 3) (converted).
Source text: as §1
A positive control without inhibitor and a negative control lacking both enzyme and inhibitor were prepared. […]
as §2, §3

The target in assay [3] is T1, P. aeruginosa PBP3. As to the kind of experiment: Meropenem competition binding experiment, PBP3-observed mass spectrometry. The note with it: 1 : 1 mixture of cephalosporin and meropenem (1 mM of each), 100 μM PBP3, 10 minutes co-incubation, quenched with formic acid. On the procedure:
To further probe the relative rates of reaction of the four β-lactams with PBP3, a competitive binding experiment employing PBP3-observed mass spectrometry (MS) was developed. […] Following 10 minutes co-incubation with PBP3, the reactions were quenched with formic acid and analysed by protein-observed MS (under denaturing conditions) (Fig. 1).
The spectra shown are representative of three technical repeats.
Samples were then diluted in LC-MS-grade water (15 μM final concentration) and analysed using a Waters XeVo G2-S mass spectrometer coupled to a Waters Acquity-UPLC. 5 μL samples were injected onto a ThermoFisher Scientific ProSwift RP-4H (1 mm × 50 mm) column pre-equilibrated in 95%v/v water, 5%v/v MeCN. The column was eluted with a linear gradient from 5 to 95v/v% MeCN in water over ten minutes. All solvents contained 0.1%v/v formic acid. Data were analysed using MassLynx Version 4.1. The mass spectra obtained were deconvoluted using the MaxEnt1 algorithm.

In a further assay the test system is PBP3. The arrangement: method as in earlier work. The note with it: Bocillin-FL assay under different conditions; ref 20 (Shapiro et al.); cited from earlier work.

Read-outs that look alike come from different tables or passages of the source.

T1 sequence (G3XD46 50-579): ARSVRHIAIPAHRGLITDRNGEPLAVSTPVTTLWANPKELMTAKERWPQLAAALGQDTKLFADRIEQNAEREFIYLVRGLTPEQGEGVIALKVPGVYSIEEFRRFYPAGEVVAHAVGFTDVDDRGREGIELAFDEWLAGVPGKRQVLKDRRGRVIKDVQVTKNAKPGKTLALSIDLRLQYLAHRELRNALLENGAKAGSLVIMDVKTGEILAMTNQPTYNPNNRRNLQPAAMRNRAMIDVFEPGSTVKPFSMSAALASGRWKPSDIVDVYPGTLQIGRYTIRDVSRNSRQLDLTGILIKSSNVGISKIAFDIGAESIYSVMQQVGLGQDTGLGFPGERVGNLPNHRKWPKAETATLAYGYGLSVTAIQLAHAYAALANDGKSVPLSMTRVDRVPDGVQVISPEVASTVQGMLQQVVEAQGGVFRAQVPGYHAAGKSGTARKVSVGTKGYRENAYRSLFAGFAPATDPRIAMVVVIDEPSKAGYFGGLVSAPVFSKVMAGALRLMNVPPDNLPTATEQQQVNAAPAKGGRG

Regarding `CO/N=C(\C(=O)N[C@@H]1C(=O)N2C(C(=O)[O-])=C(C[N+]3(C)CCCC3)CS[C@H]12)c1csc(N)n1` [Cefepime, cefepime], the IC50 was 100 nM on P. aeruginosa PBP3 [1] and 39.8 nM at P. aeruginosa PBP3 [2]. Further, the “PBP3 complex formed in competition with meropenem (protein-observed MS)” value (“PBP3 complex formed in competition” below) on P. aeruginosa PBP3 [3] is “∼1 : 1 mixture of cefepime and meropenem modified PBP”.
Take `CC(C)(O/N=C(\C(=O)N[C@@H]1C(=O)N2C(C(=O)[O-])=C(C[N+]3(CCNC(=O)c4ccc(O)c(O)c4Cl)CCCC3)CS[C@H]12)c1csc(N)n1)C(=O)O` [Cefiderocol, cefiderocol]: the IC50 at P. aeruginosa PBP3 [1] is 100 nM; on P. aeruginosa PBP3 [2], 50.1 nM. The “PBP3 complex formed in competition” value on P. aeruginosa PBP3 [3] is reported as “a small amount of cefiderocol modified PBP3 was observed”.
On to `CC(C)(O/N=C(\C(=O)N[C@@H]1C(=O)N2C(C(=O)[O-])=C(C[n+]3ccccc3)CS[C@H]12)c1csc(N)n1)C(=O)O` [Ceftazidime, ceftazidime], for which the values for the IC50 at P. aeruginosa PBP3 [1] and on P. aeruginosa PBP3 [2] were 251 nM and 79.4 nM, respectively. Besides, in the assay on PBP3, the “PBP3 inhibition relative to meropenem” value was “more inhibition with ceftazidime than meropenem”. Also, on P. aeruginosa PBP3 [3], the “PBP3 complex formed in competition” value is recorded as “exclusively meropenem-modified PBP3”.

(Values after article PMC11423509, “Structural basis of Pseudomonas aeruginosa penicillin binding protein 3 inhibition by the siderophore-antibiotic cefiderocol” (Chemical Science, 2024).)
